Assay results: patent US5491169A, “Amino acid derivatives and their therapeutical applications” (priority 1989, dated 1996)
pIC50: −log10 of the molar value. Several values for one entry are separate records, joined by “and”; a condition that tells them apart may be missing. Equal values may be shown once. Blank lines part the entries; values can stand above or below the compound they belong to.

Legend:
[1] = target: T1, purified rabbit kidney neutral endopeptidase (Oryctolagus cuniculus, UniProt P08049); assay: In vitro inhibitory potency against neutral endopeptidase; format: biochemical; conditions: purified rabbit kidney enzyme, (3H)-D-Ala2-Leu5-enkephalin, 25° C., pH 7.4, DTT 100 equivalents
T1 construct: from tissue; host or cells: rabbit kidney (purified enzyme)
T1 sequence (P08049 1-750): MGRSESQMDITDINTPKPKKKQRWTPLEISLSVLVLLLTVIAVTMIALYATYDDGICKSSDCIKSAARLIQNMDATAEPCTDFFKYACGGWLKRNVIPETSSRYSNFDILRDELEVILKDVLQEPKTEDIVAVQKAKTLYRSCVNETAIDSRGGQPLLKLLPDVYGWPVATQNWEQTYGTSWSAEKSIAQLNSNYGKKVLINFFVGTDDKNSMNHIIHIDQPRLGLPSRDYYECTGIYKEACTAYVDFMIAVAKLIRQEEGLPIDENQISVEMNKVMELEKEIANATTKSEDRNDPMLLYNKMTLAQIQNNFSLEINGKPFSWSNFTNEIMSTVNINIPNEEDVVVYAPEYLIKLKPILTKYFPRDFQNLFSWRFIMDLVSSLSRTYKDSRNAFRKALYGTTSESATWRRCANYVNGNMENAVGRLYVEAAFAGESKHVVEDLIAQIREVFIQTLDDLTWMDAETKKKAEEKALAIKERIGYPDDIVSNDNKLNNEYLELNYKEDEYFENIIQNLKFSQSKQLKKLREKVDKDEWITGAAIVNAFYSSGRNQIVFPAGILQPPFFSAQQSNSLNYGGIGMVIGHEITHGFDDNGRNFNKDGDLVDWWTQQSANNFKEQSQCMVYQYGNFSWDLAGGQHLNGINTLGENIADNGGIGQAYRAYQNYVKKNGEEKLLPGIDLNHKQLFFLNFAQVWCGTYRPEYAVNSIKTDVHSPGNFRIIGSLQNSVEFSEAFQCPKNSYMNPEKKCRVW
Method: (§1) The biological activity relates to the inhibition of purified aminopeptidase N and of purified neutral endopeptidase.
(§2) 1) In vitro inhibition of enkephalinase activities.
a) Inhibitory potency against neutral endopeptidase
The inhibitory power is determined on purified rabbit kidney neutral endopeptidase following the protocol described in the literature (Blumberg et al. Life Sci. (1981) 28, 301). After a preincubation for 15 minutes at 25° C., an aliquot of proteins is incubated for 20 minutes at 25° C. in the presence of 20 nmol of (^3 H)-D-Ala^2 -Leu^5 -enkephalin and the test compound in solution in Tris-HCl buffer (pH 7.4) in the presence of dithiothreitol DTT (100 equivalents relative to the inhibitor). The reaction is stopped by adding 0.2 N HCl. The tritiated metabolite (^3 H)-Tyr-D-Ala-Gly is separated from the D-Ala^2 -Leu^5 -enkephalin by chromatography on a Porapak column, and the quantity formed measured using a liquid scintillation counter.
The activity of the different compounds is expressed as 50% inhibitory concentrations (IC50), and the results are summarized in Table II.

[2] = target: T2, purified porcine kidney aminopeptidase N (Sus scrofa, UniProt P15145); assay: In vitro inhibitory potency against aminopeptidase N; format: biochemical; conditions: purified porcine kidney enzyme, (3H)-Leu5-enkephalin, DTT
T2 construct: purchased Boehringer, France; host or cells: porcine kidney
T2 sequence (P15145 1-963): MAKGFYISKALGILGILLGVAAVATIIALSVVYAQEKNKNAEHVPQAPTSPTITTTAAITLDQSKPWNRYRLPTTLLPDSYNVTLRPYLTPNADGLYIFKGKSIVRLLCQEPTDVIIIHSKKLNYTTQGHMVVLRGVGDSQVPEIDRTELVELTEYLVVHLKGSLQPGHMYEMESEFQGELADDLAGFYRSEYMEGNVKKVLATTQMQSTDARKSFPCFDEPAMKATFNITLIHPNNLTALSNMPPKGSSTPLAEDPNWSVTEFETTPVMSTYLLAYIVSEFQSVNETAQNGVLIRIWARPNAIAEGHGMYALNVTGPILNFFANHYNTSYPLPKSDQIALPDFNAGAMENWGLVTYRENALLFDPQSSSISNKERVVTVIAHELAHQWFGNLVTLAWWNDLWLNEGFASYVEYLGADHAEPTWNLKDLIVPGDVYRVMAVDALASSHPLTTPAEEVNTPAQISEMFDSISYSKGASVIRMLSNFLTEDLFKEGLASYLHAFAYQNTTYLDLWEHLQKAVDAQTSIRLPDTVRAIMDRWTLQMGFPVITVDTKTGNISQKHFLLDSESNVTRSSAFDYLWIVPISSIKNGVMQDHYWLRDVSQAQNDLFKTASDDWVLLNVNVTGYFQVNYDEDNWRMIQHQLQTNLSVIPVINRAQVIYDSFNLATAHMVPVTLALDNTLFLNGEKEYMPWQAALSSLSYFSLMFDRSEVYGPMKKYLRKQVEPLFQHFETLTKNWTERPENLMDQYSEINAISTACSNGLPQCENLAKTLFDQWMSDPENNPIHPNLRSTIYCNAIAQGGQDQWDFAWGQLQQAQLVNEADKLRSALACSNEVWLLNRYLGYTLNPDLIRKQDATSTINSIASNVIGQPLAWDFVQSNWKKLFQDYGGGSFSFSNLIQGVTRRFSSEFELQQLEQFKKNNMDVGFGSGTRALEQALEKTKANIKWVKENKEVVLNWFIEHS
Method: as §1, §2
b) Inhibitory potency against aminopeptidase N
The inhibitory power is measured on purified porcine kidney aminopeptidase (Boehringer, France). The assay is performed in a manner identical to the above, using (^3 H)-Leu^5 -enkephalin as a substrate. The metabolite formed, (^3 H)-Tyr, is separated by chromatography on a Porapak column, and the quantity formed measured using a liquid scintillation counter.

Hot plate test, i.v. = format: in vivo; conditions: Mus musculus, iv, mice, hot plate 55° C., Table III 50% analgesia
Method: (§3) 1) Hot .plate test: This involves the licking and jumping reflex of the mouse on a plate heated to 55° C., according to the method of Jacob et al (Arch Int. Pharmacodyn. 122 287, 1959; 1961).
1.1. Administered i.v. (100 μl in tail vein) in mice, the compounds tested display a characteristic effect both on the latency time of jumping and on latency time of licking. These effects are antagonized by naloxone (0.5 mg/kg s.c.).
The results are expressed in Table III as a % analgesia. The percentage analgesia is expressed for each dose of compound tested by the following formula: [formula]

Hot plate test, i.p. = format: in vivo; conditions: mice
Method: as §3
1.2 Administered i.p. in mice, the test compounds display a characteristic effect on the times of restraint of jumping and of licking. These effects are antagonized by naloxone (0.5 mg/kg).

[3] = Tail flick test (withdrawal of the tail), i.v.; format: in vivo; conditions: rats, 10 mg/kg
Method: 3) Test of withdrawal of the tail in rats: (tail flick test): administered i.v. in rats, the compounds according to the invention produce a significant extension of the time of withdrawal of the tail. These effects are antagonized by naloxone (0.5 mg/kg s.c.).
The results are expressed as a % analgesia for the same dose (10 mg/kg) of all the compounds tested.

[4] = Locomotor activity (righting movements) after long-term sulpiride; format: in vivo, rats; conditions: rat, after three weeks of sulpiride, control rat 100%
Method: c) Potentiation of the behavioral effects (locomotor hyperactivity) induced by the compounds according to the invention after long-term treatment with […]: 1 h after i.v. or p.o. administration in rats, the compounds according to the invention induce an increase in locomotor activity. […] This potentiation is not apparent until three weeks after the beginning of the treatment with neuroleptics.

Mice despair test = format: in vivo; conditions: mouse, controls 165 ± 15, p < 0.01
Method: This test, described by Porsolt et al. (Arch. Int. Pharmacodyn. Ther, 299, 327 (1977), enables the antidepressant properties of the claimed compounds to be evaluated.
Mice are treated with increasing doses of the compounds thirty minutes before the test, and the immobility of the animals is measured relative to controls which receive only the vehicle. The immobility time is decreased by the compounds according to the invention, and this effect is antagonized by naloxame (0.5 mg/kg s.c.).

cerebral NEP = assay: In vivo inhibition of cerebral NEP; conditions: mice, i.v., 2.7 μmol/kg (Example 7: same conditions)
Method: 2) "In vivo" inhibition of cerebral NEP
The enzymatic activity of cerebral NEP is compared in mice untreated or treated with a given dose of compound (approximately 2.5 mg/kg injected intravenously. The animals are sacrificed at variable times after injection of the inhibitor, and the NEP activity is determined in the brain by measuring the degradation of (^3 H)-D-Ala^2 -Leu^5 -enkephalin.
For the final compound of Example 1, injected at a dose of 2.7 μmol/kg (47.6 μg in 100 μl), the following results are obtained: […]

[5] = Test on abdominal cramps induced by phenylbenzoquinone, i.v.; format: in vivo
Method: 2) Test on abdominal cramps
(Hendershot and Forsaith. J. Pharmacol. (1975), 125, 237): This test measures the number of cramps induced by i.p. injection of 100 μl of a 0.02% solution of phenylbenzoquinone. The number of cramps is counted during 10 minutes, 10 minutes after the injection. Administered i.v., the compounds decrease the number of cramps.

[6] = Cross-tolerance with morphine, i.v. injection into morphine-tolerant animal; conditions: mouse or rat
[7] = Tolerance after long-term administration, mice (% analgesia); format: in vivo; conditions: mouse, in vivo
Method: (§4) e) Study of the tolerance and addiction effects induced by long-term administration of the compound of Example 8:
(§5) 1) The compound 8 is administered s.c. four times per 24 hours at a dose of 5 mg/kg for 6 days to mice and at 10 mg/kg to rats.
(§6) Morphine (hydrochloride) is administered under the same conditions (0.5 mg/kg in mice, 2 mg/kg in rats). The control animals receive only the vehicle.

[8] = Tolerance after long-term administration, rats (% analgesia); format: in vivo; conditions: rat, in vivo
Method: as §4, §5, §6

[9] = Addiction effects: naloxone-precipitated abstinence syndrome after long-term treatment; format: in vivo; conditions: rats, 6 days long-term treatment, naloxone 2 mg/kg s.c.; compared to morphine
Method: as §5
2) After long-term treatment for 6 days under the conditions described above, the rats undergo an injection of 2 mg/kg of naloxane s.c. The signs of abstinence syndrome are measured according to Cowan et al. (J. Pharmacol. Exp. Ther. (1988) 246, 950).

pIC50 [1]: 8.70
pIC50 [2]: 8.70
SMILES: CSCCC(N)CSSCC(Cc1ccccc1)C(=O)NCC(=O)OCc1ccccc1 (stereo not drawn) [Example 5]
ED50 (Hot plate test, i.v.): 2.5 mg/kg
dose in i.p. hot plate table (Hot plate test, i.p.): 7 mg/kg
% analgesia (tail flick) [3]: 25%
Locomotor activity ([4]; i.v., 5 mg/kg): 400%
Immobility time (Mice despair test; 5 mg/kg i.p.): 108 ± 12 s

SMILES: CSCCC(N)CSSCC(Cc1ccccc1)C(=O)NC(Cc1ccccc1)C(=O)OCc1ccccc1 (stereo not drawn) [Example 7]
pIC50 [1]: 8.60
% inhibition cerebral NEP (cerebral NEP; 60'): 96 ± 5%
% inhibition cerebral NEP (cerebral NEP; 120'): 96 ± 4%
% inhibition cerebral NEP (cerebral NEP; 180'): 92 ± 4%
ED50 (Hot plate test, i.v.): 5 mg/kg
dose in i.p. hot plate table (Hot plate test, i.p.): 8 mg/kg
% analgesia (abdominal cramps) ([5]; 2.5 mg/kg): 32% ± 4
% analgesia (abdominal cramps) ([5]; 5 mg/kg): 68% ± 9
% analgesia (abdominal cramps) ([5]; 10 mg/kg): 95% ± 4
% analgesia (tail flick) [3]: 42%
Locomotor activity ([4]; i.v., 3 mg/kg): 400%
analgesic response in morphine-tolerant animal [6]: analgesic response identical to that obtained in a control animal
cross-tolerance with morphine [6]: absence of cross-tolerance

SMILES: C[S+]([O-])CCC(N)CSSCC(Cc1ccccc1)C(=O)NCC(=O)OCc1ccccc1 (stereo not drawn) [Example 8]
pIC50 [1]: 8.70
pIC50 [2]: 8.70
ED50 (Hot plate test, i.v.): 2.5 mg/kg
% analgesia relative to the controls [7]: 100 ± 10% and 100 ± 8% and 70 ± 15%
% analgesia relative to the controls [8]: 40 ± 5% and 30 ± 7%
addiction effects [9]: very weak addiction effects

pIC50 [1]: 8.52
pIC50 [2]: 8.70
SMILES: C[S+]([O-])CCC(N)CSSCC(CC[S+](C)[O-])C(=O)NC(CC(=O)OCc1ccccc1)Cc1ccccc1 (stereo not drawn) [Example 30]
ED50 (Hot plate test, i.v.): 3 mg/kg
Locomotor activity ([4]; i.v. (so in the source), 20 mg/kg): 370%
Locomotor activity ([4]; i.v., 2 mg/kg): 350%
Immobility time (Mice despair test; 2 mg/kg i.p.): 96 ± 8 s
Immobility time (Mice despair test; 20 mg/kg p.o.): 101 ± 10 s
